# In ChEMBL document CHEMBL2406991, “A novel series of metabotropic glutamate receptor 5 negative allosteric modulators based on a 4,5,6,7-tetrahydropyrazolo[1,5-a]pyridine core” (Bioorg Med Chem Lett, 2013):
# Activity calls are given as the source filed them. The rule behind the calls is not given here.
# Legend:
# [1] = target: Metabotropic glutamate receptor 5 (Rattus norvegicus, UniProt P31424); test: Negative allosteric modulation of rat mGluR5 receptor expressed in HEK293 cells assessed as intracellular calcium flux after 170 seconds by FLIPR assay; format: functional, cell-based
# Chain of Metabotropic glutamate receptor 5 (P31424 whole entry): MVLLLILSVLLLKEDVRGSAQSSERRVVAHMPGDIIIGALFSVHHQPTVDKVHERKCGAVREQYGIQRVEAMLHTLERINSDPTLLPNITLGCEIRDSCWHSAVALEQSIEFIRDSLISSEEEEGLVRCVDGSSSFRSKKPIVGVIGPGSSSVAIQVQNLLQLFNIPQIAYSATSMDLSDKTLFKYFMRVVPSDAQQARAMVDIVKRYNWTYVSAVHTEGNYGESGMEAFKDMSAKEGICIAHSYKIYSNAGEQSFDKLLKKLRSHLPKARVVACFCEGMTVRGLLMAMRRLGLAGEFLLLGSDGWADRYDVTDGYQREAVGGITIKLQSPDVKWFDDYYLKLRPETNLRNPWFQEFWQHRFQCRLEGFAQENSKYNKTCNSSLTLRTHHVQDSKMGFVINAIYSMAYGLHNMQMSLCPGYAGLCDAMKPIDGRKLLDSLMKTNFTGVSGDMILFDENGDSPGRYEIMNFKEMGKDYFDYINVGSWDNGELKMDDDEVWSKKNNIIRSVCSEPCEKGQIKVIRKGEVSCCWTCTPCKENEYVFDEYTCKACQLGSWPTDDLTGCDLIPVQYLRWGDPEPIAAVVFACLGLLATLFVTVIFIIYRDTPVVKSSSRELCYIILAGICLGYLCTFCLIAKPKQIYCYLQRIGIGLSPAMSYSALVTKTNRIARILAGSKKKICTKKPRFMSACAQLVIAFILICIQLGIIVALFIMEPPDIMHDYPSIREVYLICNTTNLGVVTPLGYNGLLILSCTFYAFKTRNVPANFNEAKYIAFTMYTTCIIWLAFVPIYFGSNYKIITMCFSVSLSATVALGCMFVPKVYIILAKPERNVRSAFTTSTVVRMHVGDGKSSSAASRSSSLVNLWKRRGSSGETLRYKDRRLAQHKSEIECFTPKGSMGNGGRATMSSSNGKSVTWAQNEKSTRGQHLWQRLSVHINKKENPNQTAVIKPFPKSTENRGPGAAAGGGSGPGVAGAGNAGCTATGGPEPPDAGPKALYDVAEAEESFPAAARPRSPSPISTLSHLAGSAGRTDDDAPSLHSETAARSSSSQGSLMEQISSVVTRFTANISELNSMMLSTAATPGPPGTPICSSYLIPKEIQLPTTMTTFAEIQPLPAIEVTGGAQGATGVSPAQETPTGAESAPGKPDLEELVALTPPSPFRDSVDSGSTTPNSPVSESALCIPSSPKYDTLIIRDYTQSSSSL
# [2] = Intrinsic clearance in human microsomes measured per mg of protein; format: ADME, Microsome
# [3] = Intrinsic clearance in rat microsomes measured per mg of protein; format: ADME, Microsome
# [4] = target: Metabotropic glutamate receptor 5 (Rattus norvegicus) (UniProt P31424); test: Inhibition of rat mGluR5 receptor expressed in HEK293 cells at 30 uM relative to control; format: cell-based
# Chain of Metabotropic glutamate receptor 5 (Rattus norvegicus) (P31424 21-1203 limits assumed): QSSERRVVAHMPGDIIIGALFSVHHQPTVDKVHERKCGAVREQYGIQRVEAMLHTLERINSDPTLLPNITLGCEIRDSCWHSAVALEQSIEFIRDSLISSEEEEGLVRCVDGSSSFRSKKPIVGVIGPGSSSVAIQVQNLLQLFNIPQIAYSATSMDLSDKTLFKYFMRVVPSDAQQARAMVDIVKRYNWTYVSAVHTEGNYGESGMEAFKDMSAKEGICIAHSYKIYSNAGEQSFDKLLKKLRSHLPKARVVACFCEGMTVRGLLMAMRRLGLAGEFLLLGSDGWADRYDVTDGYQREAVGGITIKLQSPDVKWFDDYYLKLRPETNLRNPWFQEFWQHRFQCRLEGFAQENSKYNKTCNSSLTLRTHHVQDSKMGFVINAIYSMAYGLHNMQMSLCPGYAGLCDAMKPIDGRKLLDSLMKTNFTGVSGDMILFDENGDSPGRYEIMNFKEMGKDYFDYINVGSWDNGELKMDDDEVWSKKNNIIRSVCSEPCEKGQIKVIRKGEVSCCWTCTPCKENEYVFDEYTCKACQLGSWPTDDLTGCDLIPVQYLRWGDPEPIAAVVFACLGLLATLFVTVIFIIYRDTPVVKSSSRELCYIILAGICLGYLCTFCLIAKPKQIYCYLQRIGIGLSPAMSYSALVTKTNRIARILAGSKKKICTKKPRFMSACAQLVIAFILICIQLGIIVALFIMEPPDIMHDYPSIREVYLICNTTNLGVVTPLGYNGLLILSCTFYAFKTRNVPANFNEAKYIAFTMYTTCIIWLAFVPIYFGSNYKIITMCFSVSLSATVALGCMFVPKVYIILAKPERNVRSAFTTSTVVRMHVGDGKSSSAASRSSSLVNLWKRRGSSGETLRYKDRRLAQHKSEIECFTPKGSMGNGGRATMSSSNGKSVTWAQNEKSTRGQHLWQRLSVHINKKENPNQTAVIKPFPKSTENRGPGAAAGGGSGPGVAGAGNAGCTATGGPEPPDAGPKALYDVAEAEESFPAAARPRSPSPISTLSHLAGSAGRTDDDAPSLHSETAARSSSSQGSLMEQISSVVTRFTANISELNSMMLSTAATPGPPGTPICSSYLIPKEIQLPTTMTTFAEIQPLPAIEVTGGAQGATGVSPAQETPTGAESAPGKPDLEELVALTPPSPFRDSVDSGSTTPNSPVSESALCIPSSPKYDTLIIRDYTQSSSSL
# Rattus norvegicus = test: Antinociceptive activity in Sprague-Dawley rat assessed as reduction in formalin-induced nocifensive behavior at 10 mg/kg, po administered 30 mins prior to formalin-challenge; format: functional, organism-based; design: dose 10 mg/kg
# Cytochrome P450 3A4 = Cytochrome P450 3A4 (Homo sapiens, UniProt P08684); test: Inhibition of CYP3A4 (unknown origin); format: ADME
# Chain of Cytochrome P450 3A4 (P08684 whole entry): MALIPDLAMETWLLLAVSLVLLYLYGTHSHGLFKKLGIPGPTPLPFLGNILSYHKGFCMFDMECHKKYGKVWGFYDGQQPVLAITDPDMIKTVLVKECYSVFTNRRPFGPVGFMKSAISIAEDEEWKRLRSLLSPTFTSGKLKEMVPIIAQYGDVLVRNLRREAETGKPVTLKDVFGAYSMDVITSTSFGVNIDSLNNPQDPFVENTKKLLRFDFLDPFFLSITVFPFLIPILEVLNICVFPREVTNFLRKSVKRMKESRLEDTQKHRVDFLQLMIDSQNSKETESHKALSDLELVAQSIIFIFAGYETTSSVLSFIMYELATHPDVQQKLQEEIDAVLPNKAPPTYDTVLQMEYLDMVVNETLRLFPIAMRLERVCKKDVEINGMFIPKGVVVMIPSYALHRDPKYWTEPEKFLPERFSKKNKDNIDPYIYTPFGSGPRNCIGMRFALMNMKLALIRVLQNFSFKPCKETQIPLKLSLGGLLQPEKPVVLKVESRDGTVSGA
# Cytochrome P450 2C9 = Cytochrome P450 2C9 (Homo sapiens, UniProt P11712); test: Inhibition of CYP2C9 (unknown origin); format: ADME
# Chain of Cytochrome P450 2C9 (P11712 whole entry): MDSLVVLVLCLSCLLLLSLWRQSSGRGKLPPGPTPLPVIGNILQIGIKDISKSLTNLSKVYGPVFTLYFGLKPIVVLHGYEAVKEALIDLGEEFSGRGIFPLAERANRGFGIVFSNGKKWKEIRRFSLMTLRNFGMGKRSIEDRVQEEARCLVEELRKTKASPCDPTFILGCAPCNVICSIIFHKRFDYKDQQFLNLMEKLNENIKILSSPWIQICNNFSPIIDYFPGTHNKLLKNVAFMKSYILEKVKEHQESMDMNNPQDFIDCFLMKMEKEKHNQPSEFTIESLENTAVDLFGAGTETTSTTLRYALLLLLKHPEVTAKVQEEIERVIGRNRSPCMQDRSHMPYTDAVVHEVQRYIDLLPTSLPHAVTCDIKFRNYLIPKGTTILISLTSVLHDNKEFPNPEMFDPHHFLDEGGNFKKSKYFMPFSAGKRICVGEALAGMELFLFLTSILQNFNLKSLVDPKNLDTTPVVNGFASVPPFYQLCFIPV
# Cytochrome P450 2D6 = Cytochrome P450 2D6 (Homo sapiens, UniProt P10635); test: Inhibition of CYP2D6 (unknown origin); format: ADME
# Chain of Cytochrome P450 2D6 (P10635 whole entry): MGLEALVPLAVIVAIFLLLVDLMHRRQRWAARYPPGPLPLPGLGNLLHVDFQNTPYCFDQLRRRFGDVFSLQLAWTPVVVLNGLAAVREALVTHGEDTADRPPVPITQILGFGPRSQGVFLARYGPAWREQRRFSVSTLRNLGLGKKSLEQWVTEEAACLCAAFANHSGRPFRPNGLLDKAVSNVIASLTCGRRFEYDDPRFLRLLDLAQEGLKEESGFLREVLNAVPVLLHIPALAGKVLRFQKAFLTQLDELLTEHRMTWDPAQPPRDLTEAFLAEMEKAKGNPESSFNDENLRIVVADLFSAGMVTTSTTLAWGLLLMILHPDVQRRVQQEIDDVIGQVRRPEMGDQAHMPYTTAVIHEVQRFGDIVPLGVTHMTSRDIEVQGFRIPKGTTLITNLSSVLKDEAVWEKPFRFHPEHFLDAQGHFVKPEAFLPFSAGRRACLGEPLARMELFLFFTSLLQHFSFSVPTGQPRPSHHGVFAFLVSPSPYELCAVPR
# [5] = Kinetic solubility of the compound in DMSO at pH 7.4; format: physicochemical; conditions: read-out: Kinetic_solubility
# [6] = Kinetic solubility of the compound in DMSO at pH 1; format: physicochemical; conditions: read-out: Kinetic_solubility
# [7] = target: Metabotropic glutamate receptor 5 (Rattus norvegicus) (UniProt P31424); test: Displacement of [3H]MPEP from mGluR5 receptor in Sprague-Dawley rat cortical homogenate after 1 hr by liquid scintillation spectrometric analysis
# Cytochrome P450 1A2 = target: T1, Cytochrome P450 1A2 (Homo sapiens, UniProt P05177); test: Inhibition of CYP1A2 (unknown origin); format: ADME
# T1 sequence (P05177 whole entry): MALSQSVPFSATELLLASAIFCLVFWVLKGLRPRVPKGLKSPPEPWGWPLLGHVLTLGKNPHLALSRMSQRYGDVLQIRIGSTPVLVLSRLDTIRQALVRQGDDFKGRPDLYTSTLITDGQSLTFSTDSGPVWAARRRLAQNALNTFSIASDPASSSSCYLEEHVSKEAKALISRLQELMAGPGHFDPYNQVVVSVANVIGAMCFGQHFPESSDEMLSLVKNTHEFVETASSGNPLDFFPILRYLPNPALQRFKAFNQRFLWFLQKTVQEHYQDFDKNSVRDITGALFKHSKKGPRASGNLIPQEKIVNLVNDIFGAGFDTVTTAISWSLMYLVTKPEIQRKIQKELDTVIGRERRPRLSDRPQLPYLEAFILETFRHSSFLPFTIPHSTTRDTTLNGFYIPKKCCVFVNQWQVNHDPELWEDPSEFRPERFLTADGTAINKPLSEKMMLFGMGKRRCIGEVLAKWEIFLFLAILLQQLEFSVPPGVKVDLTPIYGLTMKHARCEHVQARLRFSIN
# Plasma = test: Metabolic stability in rat plasma matrix; format: ADME, cell-free
# [8] = target: Metabotropic glutamate receptor 5 (Rattus norvegicus) (UniProt P31424); test: Partial negative allosteric modulation of rat mGluR5 receptor expressed in HEK293 cells assessed as intracellular calcium flux after 170 seconds by FLIPR assay relative to control; format: functional, cell-based
smiles,measurement,setting,value
N#Cc1ccc(COc2cc3n(n2)CCCC3)cc1,IC50,[1]; read-out: IC50,1610 nM
Clc1ccccc1-c1cc2n(n1)CCCC2,IC50,[1]; read-out: IC50,2650 nM
Cc1cccc(COc2cc3n(n2)CCCC3)c1,IC50,[1]; read-out: IC50,769 nM
Cc1cc(C(=O)Nc2ccc(C#N)cn2)nn1C,microsomal CLint,[2],< 5 µL/min/mg
same,microsomal CLint,[3],< 5 µL/min/mg
same,inhibition,[4],> 99%
same,IC50,[1]; read-out: IC50,2620 nM
O=C(Nc1ccccn1)c1cc2n(n1)CCCC2,IC50,[1]; read-out: IC50,364 nM
Cc1cccc(NC(=O)c2cc3n(n2)CCCC3)n1,IC50,[1]; hek293,Not Active
Clc1cccc(COc2cc3n(n2)CCCC3)n1,IC50,[1]; read-out: IC50,5900 nM
Cc1ccnc(NC(=O)c2cc3n(n2)CCCC3)c1,IC50,[1]; hek293,Not Active
CC(=O)c1ccc(COc2cc3n(n2)CCCC3)nc1,IC50,[1]; hek293,Not Active
c1ccc(-c2cc3n(n2)CCCC3)cc1,IC50,[1]; read-out: IC50,1890 nM
c1ccc(COc2cc3n(n2)CCCC3)cc1,IC50,[1]; hek293,Not Active
COc1cccc(-c2cc3n(n2)CCCC3)c1,IC50,[1]; read-out: IC50,4500 nM
N#Cc1ccccc1COc1cc2n(n1)CCCC2,IC50,[1]; hek293,Not Active
N#Cc1ccnc(NC(=O)c2cc3n(n2)CCCC3)c1,IC50,[1]; hek293,Not Active
N#Cc1ccc(NC(=O)c2cc3ccccn3n2)nc1,IC50,[1]; read-out: IC50,1810 nM
Cc1cccnc1-c1cc2n(n1)CCCC2,IC50,[1]; hek293,Not Active
N#Cc1ccc(-c2cc3n(n2)CCCC3)nc1,IC50,[1]; read-out: IC50,> 10000 nM
O=C(Cc1ccccn1)c1cc2n(n1)CCCC2,IC50,[1]; read-out: IC50,390 nM
Cc1cccc(-c2cc3n(n2)CCCC3)n1,IC50,[1]; read-out: IC50,1240 nM
Clc1ccnc(-c2cc3n(n2)CCCC3)c1,IC50,[1]; read-out: IC50,675 nM
Fc1cccc(-c2cc3n(n2)CCCC3)c1,IC50,[1]; read-out: IC50,1570 nM
FC(F)(F)c1cccc(-c2cc3n(n2)CCCC3)c1,IC50,[1]; read-out: IC50,3990 nM
Cc1nc(C#Cc2cccnc2)cs1,Activity,Rattus norvegicus,Active
O=C(Nc1ncccc1O)c1cc2n(n1)CCCC2,IC50,[1]; read-out: IC50,> 10000 nM
Clc1ccnc(COc2cc3n(n2)CCCC3)c1,IC50,[1]; read-out: IC50,> 10000 nM
O=C(Nc1ccc(Cl)cn1)c1cc2n(n1)CCCC2,IC50,[1]; read-out: IC50,262 nM
CN(C(=O)c1cc2n(n1)CCCC2)c1ccccn1,IC50,[1]; hek293,Not Active
O=C(Nc1cccc(F)n1)c1cc2n(n1)CCCC2,IC50,[1]; read-out: IC50,4740 nM
COc1cccnc1NC(=O)c1cc2n(n1)CCCC2,IC50,[1]; hek293,Not Active
COc1cccc(NC(=O)c2cc3n(n2)CCCC3)n1,IC50,[1]; hek293,Not Active
Clc1ccc(-c2cc3n(n2)CCCC3)cc1,IC50,[1]; read-out: IC50,4230 nM
Nc1cccc(COc2cc3n(n2)CCCC3)n1,IC50,[1]; hek293,Not Active
Cc1ccc(-c2cc3n(n2)CCCC3)nc1,IC50,[1]; read-out: IC50,3000 nM
N#Cc1ccc(CC(=O)c2nn3c(c2C(F)(F)F)CCCC3)nc1,IC50,[1]; read-out: IC50,7180 nM
Cc1ccnc(-c2cc3n(n2)CCCC3)c1,IC50,[1]; read-out: IC50,3080 nM
Nc1cccnc1NC(=O)c1cc2n(n1)CCCC2,IC50,[1]; read-out: IC50,> 10000 nM
N#Cc1ccc(CC(=O)c2cc3n(n2)CCCC3)nc1,INH,Cytochrome P450 3A4,> 10 µM
same,INH,Cytochrome P450 2C9,> 10 µM
same,INH,Cytochrome P450 2D6,> 10 µM
same,solubility kinetic,[5],30 µg/mL
same,solubility kinetic,[6],80 µg/mL
same,microsomal CLint,[2],46 µL/min/mg
same,microsomal CLint,[3],108 µL/min/mg
same,INH,[7],139 nM
same,inhibition,[4],> 99%
same,IC50,[1]; read-out: IC50,53 nM
same,INH,Cytochrome P450 1A2,> 10 µM
Cc1cccnc1NC(=O)c1cc2n(n1)CCCC2,IC50,[1]; hek293,Not Active
O=C(Nc1ccc(F)cn1)c1cc2n(n1)CCCC2,INH,Cytochrome P450 3A4,> 10 µM
same,INH,Cytochrome P450 2C9,> 10 µM
same,INH,Cytochrome P450 2D6,> 10 µM
same,solubility kinetic,[5],40 µg/mL
same,solubility kinetic,[6],100 µg/mL
same,microsomal CLint,[2],31 µL/min/mg
same,Stability,Plasma,Unstable
same,INH,[7],166 nM
same,inhibition,[4],> 99%
same,IC50,[1]; read-out: IC50,60 nM
same,INH,Cytochrome P450 1A2,> 10 µM
O=C(Nc1cccc(C(F)(F)F)n1)c1cc2n(n1)CCCC2,IC50,[1]; hek293,Not Active
N#Cc1ccc(NC(=O)c2cc3n(n2)CCCC3)nc1,INH,Cytochrome P450 3A4,> 10 µM
same,INH,Cytochrome P450 2C9,> 10 µM
same,INH,Cytochrome P450 2D6,> 10 µM
same,microsomal CLint,[2],83 µL/min/mg
same,Stability,Plasma,Unstable
same,INH,[7],151 nM
same,inhibition,[4],> 99%
same,IC50,[1]; read-out: IC50,90 nM
same,INH,Cytochrome P450 1A2,> 10 µM
Clc1cccc(-c2cc3n(n2)CCCC3)n1,IC50,[1]; read-out: IC50,1520 nM
N#Cc1ccc(CC(=O)c2nn3c(c2C#N)CCCC3)nc1,IC50,[1]; read-out: IC50,5380 nM
N#Cc1ccc(CC(=O)c2nn3c(c2Cl)CCCC3)nc1,INH,Cytochrome P450 3A4,> 10 µM
same,INH,Cytochrome P450 2C9,> 10 µM
same,INH,Cytochrome P450 2D6,> 10 µM
same,microsomal CLint,[2],79 µL/min/mg
same,microsomal CLint,[3],649 µL/min/mg
same,inhibition,[4],> 99%
same,IC50,[1]; read-out: IC50,108 nM
same,INH,Cytochrome P450 1A2,> 10 µM
Clc1cccc(-c2cc3n(n2)CCCC3)c1,solubility kinetic,[5],20 µg/mL
same,solubility kinetic,[6],110 µg/mL
same,microsomal CLint,[2],386 µL/min/mg
same,microsomal CLint,[3],384 µL/min/mg
same,INH,[7],401 nM
same,inhibition,[4],> 99%
same,IC50,[1]; read-out: IC50,77 nM
same,INH,Cytochrome P450 1A2,< 0.75 µM
N#Cc1cccc(COc2cc3n(n2)CCCC3)c1,IC50,[8],451 nM
Clc1ccc(COc2cc3n(n2)CCCC3)nc1,IC50,[1]; read-out: IC50,1550 nM
Nc1ccc(NC(=O)c2cc3n(n2)CCCC3)nc1,IC50,[1]; hek293,Not Active
Clc1cccc(COc2cc3n(n2)CCCC3)c1,IC50,[8],332 nM
c1ccc(COc2cc3n(n2)CCCC3)nc1,IC50,[1]; read-out: IC50,2500 nM
c1ccc(-c2cc3n(n2)CCCC3)nc1,INH,Cytochrome P450 3A4,> 10 µM
same,INH,Cytochrome P450 2C9,> 10 µM
same,INH,Cytochrome P450 2D6,> 10 µM
same,solubility kinetic,[5],180 µg/mL
same,solubility kinetic,[6],170 µg/mL
same,microsomal CLint,[2],97 µL/min/mg
same,microsomal CLint,[3],118 µL/min/mg
same,INH,[7],1180 nM
same,inhibition,[4],> 99%
same,IC50,[1]; read-out: IC50,1290 nM
same,INH,Cytochrome P450 1A2,> 10 µM
Clc1ccc(-c2cc3n(n2)CCCC3)nc1,IC50,[1]; read-out: IC50,669 nM
N#Cc1cccnc1NC(=O)c1cc2n(n1)CCCC2,IC50,[1]; hek293,Not Active
